Measured values published in US8492376B2, “Heteroaryl-cyclohexyl-tetraazabenzo[e]azulenes” (Hoffmann-La Roche Inc., priority 2010, dated 2013).

Target: T1, human V1a receptor (Homo sapiens, UniProt P37288)
T1 construct: expressed in transfected cells; host or cells: HEK293 cells, transiently transfected; cell membranes
Experiment: human V1a receptor binding studies (3H-Vasopressin, SPA beads)
Details: membranes from HEK293 cells transiently transfected with human V1a receptor, Ki calculated from IC50 by the Cheng-Prussoff equation, read-out: pKi (hV1a) (converted)
How it was run: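 Membranes from HEK293 cells transiently expressing human V1a were bound to yttrium silicate SPA beads in Tris/NaCl/KCl/CaCl2/MgCl2 buffer. 3H-vasopressin (4 nM stock) and compound in 2% DMSO incubated 1 h at room temperature. Non-specific binding was defined with cold vasopressin; IC50 was converted to Ki by Cheng-Prusoff.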

T1 sequence (P37288 whole entry): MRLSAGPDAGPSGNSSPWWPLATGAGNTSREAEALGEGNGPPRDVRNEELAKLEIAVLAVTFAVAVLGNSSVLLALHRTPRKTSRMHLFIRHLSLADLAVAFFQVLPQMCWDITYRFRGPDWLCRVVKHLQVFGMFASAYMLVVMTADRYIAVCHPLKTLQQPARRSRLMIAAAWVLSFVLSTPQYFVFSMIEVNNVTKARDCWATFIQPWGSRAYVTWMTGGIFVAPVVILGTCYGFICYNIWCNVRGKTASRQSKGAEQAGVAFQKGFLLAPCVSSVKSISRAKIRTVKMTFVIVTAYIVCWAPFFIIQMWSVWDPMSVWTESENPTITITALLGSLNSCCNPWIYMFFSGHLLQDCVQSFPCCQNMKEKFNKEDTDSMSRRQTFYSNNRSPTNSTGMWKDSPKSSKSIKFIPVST

Row | SMILES | Ki [nM]
1 | CC(C)(C)OC(=O)N1Cc2cc(Cl)ccc2-n2c(nnc2[C@H]2CC[C@H](c3cccnc3Cl)CC2)C1 [Example 51, trans-8-Chloro-1-[4-(2-chloro-pyridin-3-yl)-cyclohexyl]-4H,6H-2,3,5,10b-tetraaza-benzo[e]azulene-5-carboxylic acid tert-butyl ester] | 2.19
2 | CN1Cc2cc(Cl)ccc2-n2c(nnc2[C@H]2CC[C@H](c3cccnn3)CC2)C1 [Example 81, trans-8-Chloro-5-methyl-1-(4-pyridazin-3-yl-cyclohexyl)-5,6-dihydro-4H-2,3,5,10b-tetraaza-benzo[e]azulene] | 4.68
3 | CN1Cc2cc(Cl)ccc2-n2c(nnc2[C@H]2CC[C@H](c3cccc(Cl)n3)CC2)C1 [Example 18, trans-8-Chloro-1-[4-(6-chloro-pyridin-2-yl)-cyclohexyl]-5-methyl-5,6-dihydro-4H-2,3,5,10b-tetraaza-benzo[e]azulene] | 0.603
4 | CN1Cc2cc(Cl)ccc2-n2c(nnc2[C@H]2CC[C@H](c3ncccc3F)CC2)C1 [Example 30, trans-8-Chloro-1-[4-(3-fluoro-pyridin-2-yl)-cyclohexyl]-5-methyl-5,6-dihydro-4H-2,3,5,10b-tetraaza-benzo[e]azulene] | 0.603
5 | Clc1ccc2c(c1)CNCc1nnc([C@H]3CC[C@H](c4cc(Cl)ccn4)CC3)n1-2 [Example 26, trans-8-Chloro-1-[4-(4-chloro-pyridin-2-yl)-cyclohexyl]-5,6-dihydro-4H-2,3,5,10b-tetraaza-benzo[e]azulene] | 1
6 | Cc1nccc([C@H]2CC[C@H](c3nnc4n3-c3ccc(Cl)cc3CNC4)CC2)n1 [Example 67, trans-8-Chloro-1-[4-(2-methyl-pyrimidin-4-yl)-cyclohexyl]-5,6-dihydro-4H-2,3,5,10b-tetraaza-benzo[e]azulene] | 1100
7 | CC(C)(C)OC(=O)N1Cc2cc(F)ccc2-n2c(nnc2[C@H]2CC[C@H](c3ncccc3F)CC2)C1 [Example 42, trans-8-Fluoro-[4-(3-fluoro-pyridin-2-yl)-cyclohexyl]-4H,6H-2,3,5,10b-tetraaza-benzo[e]azulene-5-carboxylic acid tert-butyl ester] | 0.525
8 | CN1Cc2cc(Cl)ccc2-n2c(nnc2[C@H]2CC[C@@H](c3ncccn3)CC2)C1 [Example 62, cis-8-Chloro-5-methyl-1-(4-pyrimidin-2-yl-cyclohexyl)-5,6-dihydro-4H-2,3,5,10b-tetraaza-benzo[e]azulene] | 95.5
9 | Cc1cncc([C@H]2CC[C@H](c3nnc4n3-c3ccc(Cl)cc3CNC4)CC2)n1 [Example 73, trans-8-Chloro-1-[4-(6-methyl-pyrazin-2-yl)-cyclohexyl]-5,6-dihydro-4H-2,3,5,10b-tetraaza-benzo[e]azulene] | 55
